Test results reported in PubChem BioAssay AID2060332 (Molecular Pharmacology Branch, DTP, NCI, 2025).

System: LG0567-F671-PDC multi-cell spheroid viability
Assay: Anticancer human tumor LG0567-F671-PDC patient-derived lung adenocarcinoma cell line growth inhibition [IpAb]
Conditions: for IC50: curve of first compound; for viability, T/C: stronger effect = lower value
Source text: Combinatorial screen of targeted agents with ipatasertib and abemaciclib in multi-cell type tumor spheroids
A high-throughput screen of multi-cell type tumor spheroids was designed to identify active combinations of targeted small molecules and ipatasertib or abemaciclib. Complex spheroids include a stromal component modeled by human endothelial cells (HUVEC) and fibroblasts modeled by human mesenchymal stem cells (MSCs). The concentration ranges selected for each drug and investigational agent were based upon clinically achievable concentrations if the clinical Cmax of the agent was known.
Compounds. The drugs and investigational agents: ipatasertib (NSC767898), abemaciclib(NSC768073), selumetinib (NSC741078), trametinib (758246), adavosertib (NSC754352), everolimus (NSC733504), sapanisertib (NSC764658), vemurafenib (NSC761431), venetoclax (NSC766270), copanlisib (NSC809693), apelisib (NSC765974), palbociblib (NSC758247), vemurafenib (NSC761431), dabrafenib (NSC764134), ravoxertinib (NSC781343), BMS-387032 (NSC767048), sotorasib (NSC818433), talazoparib (NSC767125) and afursertib (NSC778305), were obtained from the National Cancer Institute (NCI) Developmental Therapeutics Program Chemical Repository. The FDA-approved anticancer drug set is available from the NCI Developmental Therapeutics Program. […] The stock solutions were prepared in dimethyl sulfoxide (DMSO, Sigma-Aldrich, St. Louis, MO, cat. D2650) at 800-fold the tested concentration and stored at -70 degrees C prior to their use. All drugs and investigational agents were tested over a range starting from a high concentration at or near the clinical Cmax and decreasing in half-log increments. If the clinical Cmax for an agent had not been determined, the highest concentration tested was 10 microM.
NCI60 Cell Culture. NCI60 cell lines were obtained from the NCI Developmental Therapeutics Program Tumor Repository. For each lot of cells, the Repository performed Applied Biosystems AmpFLSTR Identifiler testing with PCR amplification to confirm consistency with the published Identifier STR profile for each cell line. Cells were kept in continuous culture for no more than 20 passages. The optimal seeding densities for each of the cell lines at each time point assessed were determined prior to performing the concentration response studies. Briefly, the NCI60 human tumor lines were grown as monolayers in RPMI 1640 medium supplemented with 10% FBS and 2 mmol/L L-glutamine.
An additional 9 lines were from the NCI60 cell line panel including MDA-MB-231 breast carcinoma, MDA-MB-468 breast carcinoma, MCF7 breast carcinoma, Hs578T breast carcinoma, MALME-3M melanoma, SK-MEL-2 melanoma, SK-OV-3 ovarian carcinoma, DU-145 prostate carcinoma, PC-3 prostate carcinoma, all cell lines along with major genetic alterations are listed on Table 2. Pooled donor human umbilical vein endothelial cells (HUVEC, Lonza, cat. CC-2519) and human mesenchymal stem cells (hMSC, Lonza, cat. PT-2501) were purchased from Lonza (Walkersville, MD).
PDMR cell lines were grown in complete medium (DC medium): Dulbecco's modified Eagle's medium (DMEM)/F12 supplemented with 5% fetal bovine serum (FBS), 2 mM L-glutamine, 100 U/mL penicillin and 100 µg/ml streptomycin, 0.4 µg/ml hydrocortisone, 10 ng/ml epidermal growth factor (EGF) recombinant human protein, 24 µg/mL adenine, and 0.1 mg/mL primocin. During culture from frozen stock vials, PDMR cells were cultured in the same medium containing 10 µM Y-27632 (see Table 3). The PDCs were cultured in complete DMEM/F12 media without 10 microM Y-27632 dihydrochloride for at least two passages prior to the screen. The pooled donor HUVEC and hMSC were cultured in endothelial cell growth medium 2 (PromoCell, Heidelberg, Germany, cat. C-22011) and mesenchymal stem cell growth medium 2 (PromoCell, cat. C-28009), respectively. For all experiments, HUVEC and hMSC were used at passages </=5.
[…]
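Also: viability read after 7 days of drug exposure.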
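For viability, T/C in this document: 100% = DMSO vehicle control luminescence.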

CC(=O)c1c(C)c2cnc(Nc3ccc(N4CCNCC4)cn3)nc2n(C2CCCC2)c1=O + CCN1CCN(Cc2ccc(Nc3ncc(F)c(-c4cc(F)c5nc(C)n(C(C)C)c5c4)n3)nc2)CC1
IC50 (second compound 0.01 µM): > 300 nM
IC50 (second compound 0.0316 µM): > 300 nM
IC50 (second compound 0.1 µM): > 300 nM
IC50 (second compound 0.316 µM): > 300 nM
IC50 (second compound 1 µM): > 300 nM
viability, T/C (second compound 0.01 µM, first compound 0.000949 µM): 74.8%
viability, T/C (second compound 0.01 µM, first compound 0.003 µM): 93.4%
viability, T/C (second compound 0.01 µM, first compound 0.00949 µM): 87.8%
viability, T/C (second compound 0.01 µM, first compound 0.03 µM): 62.5%
viability, T/C (second compound 0.01 µM, first compound 0.0949 µM): 82.8%
viability, T/C (second compound 0.01 µM, first compound 0.3 µM): 69.2%
viability, T/C (second compound 0.0316 µM, first compound 0.000949 µM): 83%
viability, T/C (second compound 0.0316 µM, first compound 0.003 µM): 65.1%
viability, T/C (second compound 0.0316 µM, first compound 0.00949 µM): 94.1%
viability, T/C (second compound 0.0316 µM, first compound 0.03 µM): 75.2%
viability, T/C (second compound 0.0316 µM, first compound 0.0949 µM): 55.4%
viability, T/C (second compound 0.0316 µM, first compound 0.3 µM): 57.4%
viability, T/C (second compound 0.1 µM, first compound 0.000949 µM): 84.4%
viability, T/C (second compound 0.1 µM, first compound 0.003 µM): 71.2%
viability, T/C (second compound 0.1 µM, first compound 0.00949 µM): 62.6%
viability, T/C (second compound 0.1 µM, first compound 0.03 µM): 80.2%
viability, T/C (second compound 0.1 µM, first compound 0.0949 µM): 60.3%
viability, T/C (second compound 0.1 µM, first compound 0.3 µM): 51.2%
viability, T/C (second compound 0.316 µM, first compound 0.000949 µM): 60.7%
viability, T/C (second compound 0.316 µM, first compound 0.003 µM): 51.7%
viability, T/C (second compound 0.316 µM, first compound 0.00949 µM): 67.1%
viability, T/C (second compound 0.316 µM, first compound 0.03 µM): 49.4%
viability, T/C (second compound 0.316 µM, first compound 0.0949 µM): 56.8%
viability, T/C (second compound 0.316 µM, first compound 0.3 µM): 50.7%
viability, T/C (second compound 1 µM, first compound 0.000949 µM): 53.4%
viability, T/C (second compound 1 µM, first compound 0.003 µM): 76.6%
viability, T/C (second compound 1 µM, first compound 0.00949 µM): 69%
viability, T/C (second compound 1 µM, first compound 0.03 µM): 65.5%
viability, T/C (second compound 1 µM, first compound 0.0949 µM): 63.7%
viability, T/C (second compound 1 µM, first compound 0.3 µM): 54.2%
